In ChEMBL document CHEMBL4340504, “Caged-xanthone from Cratoxylum formosum ssp. pruniflorum inhibits malignant cancer phenotypes in multidrug-resistant human A549 lung cancer cells through down-regulation of NF-κB” (Bioorg Med Chem, 2019):
Activity calls are given as the source filed them.

Assays:
Homo sapiens [1] = species on record: Homo sapiens; assay: Inhibition of NFkappaB in human A549RT-eto cells assessed as downregulation of Nanog expression by immunoblotting analysis; type: cell-based
Homo sapiens [2] = species on record: Homo sapiens; assay: Induction of apoptosis in human A549RT-eto cells transfected with NF-kappaB siRNA assessed as increase in pro-caspase 8 expression at 1.5 ug/ml by immunoblotting analysis; type: functional, cell-based
Homo sapiens [3] = species on record: Homo sapiens; assay: Inhibition of NFkappaB in human A549RT-eto cells assessed as down regulation of S0x2 expression by immunoblotting analysis; type: cell-based
Homo sapiens [4] = species on record: Homo sapiens; assay: Induction of apoptosis in human A549RT-eto cells transfected with NF-kappaB siRNA assessed as increase in cleaved PARP expression at 1.5 ug/ml by immunoblotting analysis; type: functional, cell-based
Homo sapiens [5] = species on record: Homo sapiens; assay: Inhibition of NFkappaB in human A549RT-eto cells assessed as down regulation of P-gp expression at 1 to 5 ug/ml measured after 24 hrs by immunoblotting analysis; type: cell-based
Homo sapiens [6] = species on record: Homo sapiens; assay: Inhibition of NFkappaB in human A549RT-eto cells assessed as down regulation of Oct4 expression by immunoblotting analysis; type: cell-based
Homo sapiens [7] = species on record: Homo sapiens; assay: Inhibition of NFkappaB in human A549RT-eto cells assessed as reduction in epithelial-mesenchymal transition by measuring down regulation of N-Cadherin expression at 1 to 1.5 ug/ml after 24 hrs by immunoblotting analysis; type: cell-based
Homo sapiens [8] = species on record: Homo sapiens; assay: Induction of apoptosis in human A549RT-eto cells assessed as reduction in […] 8 level at 1 to 5 ug/ml measured after 24 hrs by immunoblotting analysis; type: functional, cell-based
Homo sapiens [9] = species on record: Homo sapiens; assay: Inhibition of NFkappaB in human A549RT-eto cells assessed as suppression of sphere formation by measuring decrease in spheroid size at 1.5 ug/mL treated for 24 hrs followed by cell culture for 6 days and measured over 48 hrs by optical microscopic method; type: cell-based
Homo sapiens [10] = species on record: Homo sapiens; assay: Inhibition of NFkappaB in human A549RT-eto cells assessed as reduction in epithelial-mesenchymal transition by measuring up regulation of E-Cadherin expression at 1 to 1.5 ug/ml after 24 hrs by immunoblotting analysis; type: cell-based
Homo sapiens [11] = species on record: Homo sapiens; assay: Inhibition of NFkappaB in human A549RT-eto cells assessed as down regulation of Bmi1 expression by immunoblotting analysis; type: cell-based
Homo sapiens [12] = species on record: Homo sapiens; assay: Inhibition of NFkappaB in human A549RT-eto cells assessed as reduction in epithelial-mesenchymal transition by measuring down regulation of vimentin expression at 1 to 1.5 ug/ml after 24 hrs by immunoblotting analysis; type: cell-based
Homo sapiens [13] = species on record: Homo sapiens; assay: Down regulation of P-gp expression in human A549RT-eto cells transfected with NF-kappaB siRNA at 1.5 ug/ml by immunoblotting analysis; type: functional, cell-based
Homo sapiens [14] = species on record: Homo sapiens; assay: Induction of apoptosis in human A549RT-eto cells assessed as increase in PARP level at 1 to 5 ug/ml measured after 24 hrs by immunoblotting analysis; type: functional, cell-based
Homo sapiens [15] = species on record: Homo sapiens; assay: Cytotoxicity against human A549RT-eto cells assessed as cell death after 24 hrs by MTT assay; type: functional, cell-based
Homo sapiens [16] = species on record: Homo sapiens; assay: (§1) Cytotoxicity against human A549RT-eto cells assessed as reduction in cell viability after 72 hrs by MTT assay; type: functional, cell-based
[17] = as §1; type: functional, cell-based
Homo sapiens [18] = species on record: Homo sapiens; assay: Down regulation of NFkappaB expression in human A549RT-eto cells transfected with NF-kappaB siRNA at 1.5 ug/ml by immunoblotting analysis; type: functional, cell-based
[19] = Antiinvasive activity in human A549RT-eto cells assessed as reduction in cell invasion at 1.5 ug/ml measured after 24 hrs using hematoxylin-eosin by microscopy-based transwell assay relative to control; type: functional
Homo sapiens [20] = species on record: Homo sapiens; assay: Induction of apoptosis in human A549RT-eto cells assessed as reduction in […] 9 level at 1 to 5 ug/ml measured after 24 hrs by immunoblotting analysis; type: functional, cell-based
Homo sapiens [21] = species on record: Homo sapiens; assay: Induction of apoptosis in human A549RT-eto cells transfected with NF-kappaB siRNA assessed as increase in pro-caspase 9 expression at 1.5 ug/ml by immunoblotting analysis; type: functional, cell-based
Homo sapiens [22] = species on record: Homo sapiens; assay: Inhibition of NFkappaB in human A549RT-eto cells assessed as suppression of sphere formation by measuring decrease in number of spheroid formation at 1.5 ug/mL treated for 24 hrs followed by cell culture for 6 days and measured over 48 hrs by optical microscopic method; type: cell-based
Homo sapiens [23] = species on record: Homo sapiens; assay: Antimigratory activity in human A549RT-eto cells assessed as decrease in cell migration at 1.5 ug/ml for 24 hrs by phase contrast microscopy-based scratch would healing assay; type: functional
Homo sapiens [24] = species on record: Homo sapiens; assay: Down regulation of NFkappaB expression in human A549RT-eto cells at 1 to 5 ug/ml measured after 24 hrs by immunoblotting analysis; type: functional, cell-based
A549 = assay: Cytotoxicity against human A549 cells assessed as reduction in cell viability after 72 hrs by MTT assay; type: functional, cell-based; details: A549, 72 h

CO[C@@]12C=C3C(=O)c4c(O)cccc4O[C@@]34[C@@H](C1)C(C)(C)O[C@@]4(CC=C(C)C)C2=O
4.96 µg/mL: IC50 [17]
2.51 µg/mL: IC50 (A549)
2: fold change (FC) [19]
active: inhibition (Homo sapiens [1]) Dose-dependent effect | Activity (Homo sapiens [2]) | inhibition (Homo sapiens [3]) Dose-dependent effect | Activity (Homo sapiens [4]) | inhibition (Homo sapiens [5]) | inhibition (Homo sapiens [6]) Dose-dependent effect | inhibition (Homo sapiens [7]) | Activity (Homo sapiens [8]) | inhibition (Homo sapiens [9]) | inhibition (Homo sapiens [10]) | inhibition (Homo sapiens [11]) Dose-dependent effect | inhibition (Homo sapiens [12]) | Activity (Homo sapiens [13]) | Activity (Homo sapiens [14]) | Activity (Homo sapiens [15]) | Activity (Homo sapiens [16]) Dose-dependent effect | Activity (Homo sapiens [18]) | Activity (Homo sapiens [20]) | Activity (Homo sapiens [21]) | inhibition (Homo sapiens [22]) | Activity (Homo sapiens [23]) | Activity (Homo sapiens [24])
